Measurements as given in patent US12325697B2 (Nimbus Clio, Inc., priority 2021, dated 2025).

How the values were obtained:
[1] = biological target: Recombinant human Cbl-b (aa 36-427) (Homo sapiens (Human), UniProt Q13191); assay: Cbl-b Biochemical Assay (TR-FRET); conditions: read-out: TR-FRET hCbl-b IC50
How it was run: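 Two-step TR-FRET: 6 nM biotinylated Cbl-b preincubated 30-60 min with compound, then 60 min at RT with 1-2.5 nM Src-Zap70 and 0.5 mM ATP in HEPES pH 7.0 buffer, 1% DMSO. Stopped with 5 mM EDTA plus 100 nM UBE2D2-Ub-FL-BODIPY and 1 nM streptavidin-Tb, 60 min; 520 nm signal; IC50 from 4-parameter fit.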

[2] = biological target: Recombinant human c-Cbl (aa 47-435) (Homo sapiens (Human), UniProt P22681); assay: c-Cbl Biochemical Assay (TR-FRET)
Chain of Recombinant human c-Cbl (aa 47-435) (P22681 47-435): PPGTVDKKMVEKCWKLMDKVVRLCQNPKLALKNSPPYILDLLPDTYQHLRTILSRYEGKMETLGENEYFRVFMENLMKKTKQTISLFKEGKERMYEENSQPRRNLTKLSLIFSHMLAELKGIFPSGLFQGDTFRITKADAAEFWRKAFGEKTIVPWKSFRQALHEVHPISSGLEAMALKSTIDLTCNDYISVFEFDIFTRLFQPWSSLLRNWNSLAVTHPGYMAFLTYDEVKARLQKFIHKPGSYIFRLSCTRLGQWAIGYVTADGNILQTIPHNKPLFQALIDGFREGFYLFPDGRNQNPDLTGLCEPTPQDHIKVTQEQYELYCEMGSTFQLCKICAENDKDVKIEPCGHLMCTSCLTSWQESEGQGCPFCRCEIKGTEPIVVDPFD
Method: Recombinant human c-Cbl (aa 47-435) was expressed in E. coli, purified and biotinylated in vitro. The protein was diluted to 12 nM in freshly prepared assay buffer consisting of 50 mM HEPES, pH 7.0, 100 mM NaCl, 5 mM MgCl2, 0.01% Triton-X 100, 0.01% BSA and 1 mM DTT. Recombinant human Src (aa 254-536)-[…]-Zap-70 (aa 281-297) fusion protein was expressed in E. coli and purified. Protein was diluted in assay buffer to 5-20 nM and ATP was added to 1 mM. Recombinant human UBE2D2([…]) was expressed in E. coli, purified and ubiquitinated and Bodipy labelled in vitro. Protein was diluted to 200 nM in assay buffer without MgCl2 (or Cisbio PPI buffer). Streptavidin-Terbium was added to 2 nM and EDTA to 10 mM, to provide a binding assay mix. Compounds were dissolved in DMSO and diluted to prepare a ten-point half log dilution series. 100 nl of each compound concentration was dispensed in duplicate in a 384 well black assay plate using acoustic dispensing. Wells for maximum signal controls received 100 nl of DMSO only and wells for minimum controls received 100 nl of a reference inhibitor compound at a final assay concentration of […] to produce 100% inhibition. 5 μl of diluted c-cbl enzyme was added to all wells of the assay plate and incubated at RT for 30 min. The enzyme assay was initiated by addition of 5 μl of Src-Zap/ATP mix to all wells, and the plate incubated at RT for 60-90 min. The enzyme reaction was terminated and the binding reaction was initiated by adding 10 μl of binding assay mix to all wells and incubating the plate at RT for 60 min prior to assay read. Final assay conditions consisted of 6 nM c-cbl, 2.5-10 nM Src-Zap70, 0.5 mM ATP, 1% (v/v) DMSO (enzyme reaction) and 100 nM UBE2D2([…])-Ub-FL-BODIPY, 5 mM EDTA, 1 nM Streptavidin-Tb (binding reaction). The HTRF assay signal was measured at 520 nm on an Envision plate reader, with reference signal at 485 or 620 nm. Data was normalized using maximum and minimum assay controls: % Inhibition=100-(100*((maximum control)-unknown)/(maximum control-minimum control)). A 4-parameter dose-response equation was used to fit the normalized dose-response data and derive an IC50 for test compounds.

Chain of Recombinant human Cbl-b (aa 36-427) (Q13191 36-427): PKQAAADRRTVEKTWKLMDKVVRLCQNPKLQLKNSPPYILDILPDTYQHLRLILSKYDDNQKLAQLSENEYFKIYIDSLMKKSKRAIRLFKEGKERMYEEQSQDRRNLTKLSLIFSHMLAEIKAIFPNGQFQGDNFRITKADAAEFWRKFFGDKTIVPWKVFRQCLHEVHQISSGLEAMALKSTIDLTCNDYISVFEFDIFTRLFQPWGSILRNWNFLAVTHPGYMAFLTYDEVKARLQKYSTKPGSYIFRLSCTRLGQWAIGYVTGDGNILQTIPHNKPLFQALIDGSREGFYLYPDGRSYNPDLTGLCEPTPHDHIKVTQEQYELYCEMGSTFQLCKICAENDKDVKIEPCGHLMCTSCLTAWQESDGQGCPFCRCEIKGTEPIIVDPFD

Structure (SMILES)	IC50 [1]	IC50 [2]
COC[C@H]1CCCN1Cc1cc(F)c2c(c1)C(=O)N(c1cc(-c3ccc(C#N)cc3-c3nncn3C)cc(C3CC3)n1)C2 [APB-2, 4-[2-Cyclopropyl-6-(4-fluoro-6-{[(2R)-2-(methoxymethyl)pyrrolidin-1-yl]methyl}-1-oxo-3H-isoindol-2-yl)pyridin-4-yl]-3-(4-methyl-1,2,4-triazol-3-yl)benzonitrile]	≤ 200 nM	≤ 200 nM
Cn1cnnc1-c1cc(C#N)ccc1-c1cccc(N2Cc3ccc(CO)cc3C2=O)c1 [AJD-2, 3′-(6-(Hydroxymethyl)-1-oxoisoindolin-2-yl)-2-(4-methyl-4H-1,2,4-triazol-3-yl)-[1,1′-biphenyl]-4-carbonitrile]	1000 to 10000 nM	1000 to 10000 nM
Cn1cnnc1-c1cc(C#N)ccc1-c1cc(C2CC2)nc(N2Cc3c(F)cc(CN[C@]4(C)COC[C@@H]4O)cc3C2=O)c1 (relative stereo) [AOH-1, rel-4-{2-Cyclopropyl-6-[4-fluoro-6-({[(3R,4R)-4-hydroxy-3-methyloxolan-3-yl]amino}methyl)-1-oxo-3H-isoindol-2-yl]pyridin-4-yl}-3-(4-methyl-1,2,4-triazol-3-yl)benzonitrile]	≤ 200 nM	≤ 200 nM
Cn1cnnc1-c1cc(C#N)ccc1-c1cc(C2CC2)nc(N2Cc3ccc(CNCC4(F)COC4)cc3C2=O)c1 [ANL-2, 4-{2-Cyclopropyl-6-[6-({[(3-fluorooxetan-3-yl)methyl]amino}methyl)-1-oxo-3H-isoindol-2-yl]pyridin-4-yl}-3-(4-methyl-1,2,4-triazol-3-yl)benzonitrile]	≤ 200 nM	≤ 200 nM
C[C@H](NCC1COC1)c1ccc2c(c1)C(=O)N(c1cc(-c3ccc(C#N)cc3-c3nncn3C)cc(C3CC3)n1)C2 [ANO-1, (S)-4-(2-Cyclopropyl-6-(6-(1-((oxetan-3-ylmethyl)amino)ethyl)-1-oxoisoindolin-2-yl)pyridin-4-yl)-3-(4-methyl-4H-1,2,4-triazol-3-yl)benzonitrile]	≤ 200 nM	≤ 200 nM
COCCNCc1cc(F)c2c(c1)C(=O)N(c1cc(-c3ccc(C#N)cc3-c3nncn3C)cc(C(F)(F)F)n1)C2 [ALN-2, 4-[2-(4-Fluoro-6-{[(2-methoxyethyl)amino]methyl}-1-oxo-3H-isoindol-2-yl)-6-(trifluoromethyl)pyridin-4-yl]-3-(4-methyl-1,2,4-triazol-3-yl)benzonitrile]	≤ 200 nM	≤ 200 nM
Cn1cnnc1-c1cc(C#N)ccc1-c1cc(C2CC2)nc(N2Cc3ccc(CNCC4CC(F)(F)C4)cc3C2=O)c1 [AKC-2, 4-{2-Cyclopropyl-6-[6-({[(3,3-difluorocyclobutyl)methyl]amino}methyl)-1-oxo-3H-isoindol-2-yl]pyridin-4-yl}-3-(4-methyl-1,2,4-triazol-3-yl)benzonitrile]	≤ 200 nM	≤ 200 nM
COCCNCc1ccc2c(c1)C(=O)N(c1cc(-c3ccc(C#N)cc3-c3nncn3C)cc(C3CC3)c1)C2 [AJQ-2, 3′-Cyclopropyl-5′-(6-(((2-methoxyethyl)amino)methyl)-1-oxoisoindolin-2-yl)-2-(4-methyl-4H-1,2,4-triazol-3-yl)-[1,1′-biphenyl]-4-carbonitrile]	≤ 200 nM	≤ 200 nM
CO[C@@H](C)CNCc1ccc2c(c1)C(=O)N(c1cc(-c3ccc(C#N)cc3-c3nncn3C)cc(C3CC3)n1)C2 [AIM-2, 4-{2-cyclopropyl-6-[6-({[(2S)-2-methoxypropyl]amino}methyl)-1-oxo-3H-isoindol-2-yl]pyridin-4-yl}-3-(4-methyl-1,2,4-triazol-3-yl) benzonitrile]	≤ 200 nM	≤ 200 nM
Cn1cnnc1-c1cc(C#N)ccc1-c1cc(C2CC2)nc(N2Cc3ccc(CNC4COC4)cc3C2=O)c1 [AMV-2, 4-(2-Cyclopropyl-6-{6-[(oxetan-3-ylamino)methyl]-1-oxo-3H-isoindol-2-yl}pyridin-4-yl)-3-(4-methyl-1,2,4-triazol-3-yl)benzonitrile]	≤ 200 nM	≤ 200 nM
COCC1(NCc2ccc3c(c2)C(=O)N(c2cc(-c4ccc(C#N)cc4-c4nncn4C)cc(C4CC4)n2)C3)CC1 [ALT-2, 4-{2-Cyclopropyl-6-[6-({[1-(methoxymethyl)cyclopropyl]amino}methyl)-1-oxo-3H-isoindol-2-yl]pyridin-4-yl}-3-(4-methyl-1,2,4-triazol-3-yl)benzonitrile]	≤ 200 nM	≤ 200 nM
CC(C)OCCNCc1ccc2c(c1)C(=O)N(c1cc(-c3ccc(C#N)cc3-c3nncn3C)cc(C3CC3)n1)C2 [AIL-3, 4-[2-Cyclopropyl-6-(6-{[(2-isopropoxyethyl)amino]methyl}-1-oxo-3H-isoindol-2-yl)pyridin-4-yl]-3-(4-methyl-1,2,4-triazol-3-yl)benzonitrile]	≤ 200 nM	≤ 200 nM
Cn1cnnc1-c1cc(C#N)ccc1-c1cc(C2CC2)nc(N2Cc3ccc(C(C)(C)NCC4CC4)cc3C2=O)c1 [ALL-2, 4-[2-Cyclopropyl-6-(6-{2-[(cyclopropylmethyl)amino]propan-2-yl}-1-oxo-3H-isoindol-2-yl)pyridin-4-yl]-3-(4-methyl-1,2,4-triazol-3-yl)benzonitrile]	≤ 200 nM	≤ 200 nM
Cn1cnnc1-c1cc(Cl)ccc1-c1cc(C2CC2)nc(N2Cc3ccc(CO)cc3C2=O)c1 [AIU-1, 2-(4-(4-Chloro-2-(4-methyl-4H-1,2,4-triazol-3-yl)phenyl)-6-cyclopropylpyridin-2-yl)-6-(hydroxymethyl)isoindolin-1-one]	≤ 200 nM	≤ 200 nM
CCOc1cc(-c2ccc(C#N)cc2-c2nncn2C)cc(N2Cc3ccc(CNCCOC)cc3C2=O)n1 [AHS-2, 4-(2-Ethoxy-6-(6-(((2-methoxyethyl)amino)methyl)-1-oxoisoindolin-2-yl)pyridin-4-yl)-3-(4-methyl-4H-1,2,4-triazol-3-yl)benzonitrile]	≤ 200 nM	≤ 200 nM
Cn1cnnc1-c1cc(C#N)ccc1-c1cc(C2CC2)nc(N2Cc3c(F)cc(CN4CCC[C@H]4CF)cc3C2=O)c1 [APA-2, 4-[2-Cyclopropyl-6-(4-fluoro-6-{[(2S)-2-(fluoromethyl)pyrrolidin-1-yl]methyl}-1-oxo-3H-isoindol-2-yl)pyridin-4-yl]-3-(4-methyl-1,2,4-triazol-3-yl)benzonitrile]	≤ 200 nM	≤ 200 nM
Cn1cnnc1-c1cc(C#N)ccc1-c1cc(C2CC2)cc(N2Cc3ccc(CO)cc3C2=O)c1 [AJP-7, 3′-Cyclopropyl-5′-(6-(hydroxymethyl)-1-oxoisoindolin-2-yl)-2-(4-methyl-4H-1,2,4-triazol-3-yl)-[1,1′-biphenyl]-4-carbonitrile]	200 to 1000 nM	1000 to 10000 nM
Cn1cnnc1-c1cc(C#N)ccc1-c1cc(C2CC2)nc(N2Cc3ccc(C(C)(C)NC4CCC4)cc3C2=O)c1 [AOI-1, 4-(2-{6-[2-(Cyclobutylamino)propan-2-yl]-1-oxo-3H-isoindol-2-yl}-6-cyclopropylpyridin-4-yl)-3-(4-methyl-1,2,4-triazol-3-yl)benzonitrile]	≤ 200 nM	≤ 200 nM
CCOc1cc(-c2ccc(Cl)cc2-c2nncn2C)cc(N2Cc3ccc(CNCC4(O)CCC4)cc3C2=O)n1 [AHT-2, 2-(4-(4-Chloro-2-(4-methyl-4H-1,2,4-triazol-3-yl)phenyl)-6-ethoxypyridin-2-yl)-6-((((1-hydroxycyclobutyl)methyl)amino)methyl)isoindolin-1-one]	≤ 200 nM	≤ 200 nM
Cn1cnnc1-c1cc(C#N)ccc1-c1cc(C2CC2)nc(N2Cc3ccc(CNC[C@H]4CCOC4)cc3C2=O)c1 [ANZ-2, 4-{2-Cyclopropyl-6-[1-oxo-6-({[(3R)-oxolan-3-ylmethyl]amino}methyl)-3H-isoindol-2-yl]pyridin-4-yl}-3-(4-methyl-1,2,4-triazol-3-yl)benzonitrile]	≤ 200 nM	≤ 200 nM
CC(=O)c1ccc2c(c1)C(=O)N(c1cc(-c3ccc(C#N)cc3-c3nncn3C)cc(C3CC3)n1)C2 [AJH-3, 4-(2-(6-Acetyl-1-oxoisoindolin-2-yl)-6-cyclopropylpyridin-4-yl)-3-(4-methyl-4H-1,2,4-triazol-3-yl)benzonitrile]	≤ 200 nM	≤ 200 nM
